# Literature values in patent publication US20240237650A1, “AQUEOUS FUNGICIDE MIXTURE FORMULATION” (ADAMA MAKHTESHIM LTD., priority 2021, published 2024).
# Where two headings read alike, the source gives them in different places.
# Details: 20° C.
structure (smiles),measurement,setting,value
"CO/C=C(/C(=O)OC)c1ccccc1Oc1cc(Oc2ccccc2C#N)ncn1 [azoxystrobin, methyl (E)-2-{2[6-(2-cyanophenoxy)pyrimidin-4-yloxy]phenyl}-3-methoxyacrylate]",solubility of azoxystrobin in water,pH 5.2 and 7.0,6.7 µg/mL
same,solubility of azoxystrobin in water,pH 9.2,5.9 µg/mL
